US20250250559A1, “METHOD TO ANALYZE AND OPTIMIZE GENE EDITING MODULES AND DELIVERY APPROACHES” (Hoffmann-La Roche Inc., priority 2016, published 2025)
Values joined by “and” are separate entries in the source; they are usually repeats but may differ in a detail not shown here. Identical values can stand only once.

Legend:
Format in all cases: cell-based, human
DPH1 gene [1] = experiment: DT resistant colony count after DPH1 gene editing (homozygous gene inactivation); conditions: for # of DT resistant colonies (20,000 seeded cells) / # of DT resistant colonies (20,000 seeded cells) (unheaded second sub-column: mean): DPH1 (gRNA length), TF eff. = 31%; for # of DT resistant colonies (20,000 seeded cells): MCF7, individual samples A-D
Method: (§1) MCF7 cells (Brooks, et al. 1973) were originally obtained from ATCC (subsequently propagated in an in-house cell bank) and maintained in RPMI […] medium supplemented with 10% FCS, 2 mM L-Glutamine and penicillin/streptomycin at 37° C. and 85% humidity. For transfection of plasmids harboring gene-editing modules, 3,000,000 cells were seeded in a 10 cm diameter culture dish and cultivated at 37° C. and humidified 5% CO2. 24 h after seeding, cells were transfected with 20 μg total DNA using JetPEI (Polyplus) according to the manufacturer's protocol but with an N/P ratio of 6:1. Transfection efficiency was determined after 24 h by flow cytometry (FACS Calibur, BD biosciences) of cells that were transfected with a modified eGFP expression plasmid (Zhang, et al. 1996).
(§2) Plasmids encoding CRISPR/Cas9 gene-editing entities (i.e. knock-out and integration systems) against Dph1 (gRNA target sequence: […] (SEQ ID NO: 01) derived from RefSeq: NM_001383) and Dph2 (gRNA target sequence: […] (SEQ ID NO: 02) derived from RefSeq: NM_001039589, NM_001384), and scrambled control (gRNA sequence: […] (SEQ ID NO: 03)) were obtained from OriGene. This system comprises one plasmid expressing a ˜100 nt gRNA under control of a U6 promoter as well as Cas9 nuclease under control of a CMV promoter and a Donor plasmid with a promoter-less GFP/PM expression cassette flanked by homologous arms to the target gene (Dph1 or Dph2). Additional Dph1 gRNA sequence variants of different sizes (OriGene) […]
(§3) MCF7 cells which have all chromosomal copies of DPH1 or DPH2 inactivated are resistant to diphtheria toxin (Stahl, et al. 2015). Thus, occurrence and frequency of toxin resistant cells/colonies upon CRISPR/Cas inflicted gene inactivation provides a measure for efficiency of inactivation of all gene copies. Therefore, MCF/cells were transfected as described in Example 1 with (i) a GFP expression plasmid as transfection control, (ii) the CRISPR/Cas9 Dph1 or Dph2 knock-out/integration system and (iii) knock-out/integration entities containing a scrambled gRNA to determine Cas9 independent integration frequencies. After determination of transfection efficiency, cells were seeded in 6-well plates. For quantification of homozygous knock-out events by DT 20000 cells were seeded and for quantification of integration events by PM or both events 40000 cells were seeded. RPMI medium was exchanged by RPMI medium containing DT or PM or both toxins 3 days after cell seeding. Exchange of medium was repeated every 2-3 days until all dead cells were removed from the plates and actively growing colonies could be detected via microscopic inspection. Thereafter (between day 12 and day 14 after start of toxin exposure), cells were washed 3 times with PBS and subsequently stained with ice cold methylene blue (0.2% in 50% EtOH). Methylene blue solution was subsequently removed and the plates were carefully washed under running water. Finally, cell colonies were counted under the microscope with a 5 mm grid foil.
MCF7 cells which have all chromosomal copies of DPH1 inactivated are DT resistant. Thus, occurrence and frequency of DTr colonies upon ZFN inflicted gene inactivation and/or cassette integration provides a measure for efficacy of inactivation of all gene copies. The ZFN recognition sequence ([…], cleavage site, SEQ ID NO: 10) are derived from NM_001383.3 (DPH1-wt) and were obtained from Sigma Aldrich. A PAC integration cassette for this position was obtained from OriGene. MCF7 cells were transfected as described above with (i) a GFP expression plasmid, (ii) the plasmid encoding DPH1-targeting ZFN and (iii) the DPH1-targeting PAC-integration cassette. After determination of transfection efficiency, cells were seeded in 6-well plates. For quantification of homozygous knock-out events (DTr) 20,000 cells were seeded, 40,000 cells for quantification of integration events (PMr) or double resistances. […]

DPH1 gene [2] = experiment: PM resistant colony count after DPH1 gene editing (PAC cassette integration); conditions: for # of PM resistant colonies (40,000 seeded cells) / # of PM resistant colonies (40,000 seeded cells) (unheaded second sub-column: mean): DPH1 (gRNA length), TF eff. = 31%; for # of PM resistant colonies (40,000 seeded cells): MCF7, individual samples A-D; for integration efficacy in dependence on gRNA length: PMr colonies
Method: as §1, §2
as §3, with “For quantification of homozygous knock-out events by DT 20000 cells were seeded and for quantification of integration events by PM or both events 40000 cells were seeded.” left out
CRISPR/Cas module for targeted integration contains a puromycin (PM) resistance gene expression cassette without promoter to avoid transient expression. Thus, detection of integration of recombinant sequences into the genome was detected by determining sensitivity of cells towards PM. A concentration of […] PM (which quantitatively eliminates wildtype MCF7 cells) was applied to select MCF7 cells with stably integrated expression cassettes. PM-resistant colonies selected with the same procedure as described above for the DT selection and visualized and quantified (between 12 and 14 days after start of selection) in the same manner as described above for toxin resistant colonies. Number of PM resistant colonies obtained with non-target guide sequences (scrambled gRNA, FIG. 1) reflect the nonspecific integration background. Increase in colonies (above nonspecific background) obtained with target-gene gRNAs which are PM-resistant but toxin sensitive reflect integration into just one target allele, leaving the other dph1 or dph2 allele unaffected. […]

DPH1 gene [3] = experiment: DT + PM double resistant colony count after DPH1 gene editing (integration with inactivation); conditions: DPH1 (gRNA length), TF eff. = 31%; for # of DT + PM resistant colonies (40,000 seeded cells): MCF7, individual samples A-D
Method: MCF7 cells (Brooks, et al. 1973) were originally obtained from ATCC (subsequently propagated in an in-house cell bank) and maintained in RPMI 1641 medium supplemented with 10% FCS, 2 mM L-Glutamine and penicillin/streptomycin at 37° C. and 85% humidity. For transfection of plasmids harboring gene-editing modules, 3,000,000 cells were seeded in a 10 cm diameter culture dish and cultivated at 37° C. and humidified 5% CO2. 24 h after seeding, cells were transfected with 20 μg total DNA using JetPEI (Polyplus) according to the manufacturer's protocol but with an N/P ratio of 6:1. Transfection efficiency was determined after 24 h by flow cytometry (FACS Calibur, BD biosciences) of cells that were transfected with a modified eGFP expression plasmid (Zhang, et al. 1996).
CRISPR/Cas module for targeted integration contains a puromycin (PM) resistance gene expression cassette without promoter to avoid transient expression. Thus, detection of integration of recombinant sequences into the genome was detected by determining sensitivity of cells towards PM. A concentration of 500 ng/μL PM (which quantitatively eliminates wildtype MCF7 cells) was applied to select MCF7 cells with stably integrated expression cassettes. PM-resistant colonies selected with the same procedure as described above for the DT selection and visualized and quantified (between 12 and 14 days after start of selection) in the same manner as described above for toxin resistant colonies. Number of PM resistant colonies obtained with non-target guide sequences (scrambled gRNA, FIG. 1) reflect the nonspecific integration background. Increase in colonies (above nonspecific background) obtained with target-gene gRNAs which are PM-resistant but toxin sensitive reflect integration into just one target allele, leaving the other dph1 or dph2 allele unaffected. PM resistant colonies that are also DT resistant have the expression cassette integrated into at least target allele and the other allele either inactivated or inactivated accompanied by yet another integration event.

[4] = listed as 26 mer Dph1 CRISPR Cas9 gRNA
[5] = listed as 26 mer Dph1 CRISPR/Cas9 gRNA
[6] = listed as 24 mer Dph1 CRISPR Cas9 gRNA
[7] = listed as 18 mer Dph1 CRISPR Cas9 gRNA
[8] = listed as 16 mer Dph1 CRISPR Cas9 gRNA
[9] = listed as 22 mer Dph1 CRISPR Cas9 gRNA

26 mer SpCas9 Dph1 gRNA: Dph1 gRNA sequence variant GCGGAGCAGGGCGGCCGAGACGGCCC with SpCas9 (chemistry not given here)
# of DT resistant colonies (20,000 seeded cells) (DPH1 gene [1]): 161 and 155 and 176 and 187
# of DT resistant colonies (20,000 seeded cells) (DPH1 gene [1]; [4]): 161 and 155 and 176
# of DT resistant colonies (20,000 seeded cells) (DPH1 gene [1]; [5]): 187
# of DT resistant colonies (20,000 seeded cells) (unheaded second sub-column: mean) (DPH1 gene [1]): 170
# of PM resistant colonies (40,000 seeded cells) (DPH1 gene [2]): 12 (2×) and 11 and 9
# of PM resistant colonies (40,000 seeded cells) (DPH1 gene [2]; [4]): 12 (2×) and 11
# of PM resistant colonies (40,000 seeded cells) (DPH1 gene [2]; [5]): 9
# of PM resistant colonies (40,000 seeded cells) (unheaded second sub-column: mean) (DPH1 gene [2]): 11
integration efficacy in dependence on gRNA length (DPH1 gene [2]): Targeted integration clearly above background was observed
# of DT + PM resistant colonies (40,000 seeded cells) (DPH1 gene [3]): 0 (2×) and 1 (2×)
# of DT + PM resistant colonies (40,000 seeded cells) (DPH1 gene [3]; [4]): 0 (2×) and 1
# of DT + PM resistant colonies (40,000 seeded cells) (DPH1 gene [3]; [5]): 1
# of DT + PM resistant colonies (40,000 seeded cells) (unheaded second sub-column: mean) (DPH1 gene [3]): 1

14 mer SpCa9 Dph1 gRNA: Dph1 gRNA sequence variant GGCCGAGACGGCCC with SpCas9 (listed as DNA, chemistry not given here)
# of DT resistant colonies (20,000 seeded cells) (DPH1 gene [1]): 0
# of DT resistant colonies (20,000 seeded cells) (unheaded second sub-column: mean) (DPH1 gene [1]): 0
DPH1 inactivation efficacy in dependence on gRNA length (DPH1 gene [1]; DTr colonies): below detection levels
# of PM resistant colonies (40,000 seeded cells) (DPH1 gene [2]): 6 and 10 and 8 and 9
# of PM resistant colonies (40,000 seeded cells) (DPH1 gene [2]; listed as 14 mer Dph1 CRISPR Cas9 gRNA): 6 and 10 and 8 and 9
# of PM resistant colonies (40,000 seeded cells) (unheaded second sub-column: mean) (DPH1 gene [2]): 8
integration efficacy in dependence on gRNA length (DPH1 gene [2]): not exceeding scrambled control background levels
# of DT + PM resistant colonies (40,000 seeded cells) (DPH1 gene [3]): 0
# of DT + PM resistant colonies (40,000 seeded cells) (unheaded second sub-column: mean) (DPH1 gene [3]): 0

24 mer SpCas9 Dph1 gRNA: Dph1 gRNA sequence variant GGAGCAGGGCGGCCGAGACGGCCC with SpCas9 (chemistry not given here)
# of DT resistant colonies (20,000 seeded cells) (DPH1 gene [1]): 237 and 252 and 228 and 211
# of DT resistant colonies (20,000 seeded cells) (DPH1 gene [1]; [6]): 237 and 252 and 228 and 211
# of DT resistant colonies (20,000 seeded cells) (unheaded second sub-column: mean) (DPH1 gene [1]): 232
# of PM resistant colonies (40,000 seeded cells) (DPH1 gene [2]): 13 and 12 and 11 and 15
# of PM resistant colonies (40,000 seeded cells) (DPH1 gene [2]; [6]): 13 and 12 and 11 and 15
# of PM resistant colonies (40,000 seeded cells) (unheaded second sub-column: mean) (DPH1 gene [2]): 13
integration efficacy in dependence on gRNA length (DPH1 gene [2]): Targeted integration clearly above background was observed
# of DT + PM resistant colonies (40,000 seeded cells) (DPH1 gene [3]): 2 and 4 and 3 (2×)
# of DT + PM resistant colonies (40,000 seeded cells) (DPH1 gene [3]; [6]): 2 and 4 and 3 (2×)
# of DT + PM resistant colonies (40,000 seeded cells) (unheaded second sub-column: mean) (DPH1 gene [3]): 3

18 mer SpCas9 Dph1 gRNA: Dph1 gRNA sequence variant GGGCGGCCGAGACGGCCC with SpCas9 (chemistry not given here)
# of DT resistant colonies (20,000 seeded cells) (DPH1 gene [1]): 284 and 299 and 321 and 324
# of DT resistant colonies (20,000 seeded cells) (DPH1 gene [1]; [7]): 284 and 299 and 321 and 324
# of DT resistant colonies (20,000 seeded cells) (unheaded second sub-column: mean) (DPH1 gene [1]): 307
# of PM resistant colonies (40,000 seeded cells) (DPH1 gene [2]): 19 and 25 and 27 and 22
# of PM resistant colonies (40,000 seeded cells) (DPH1 gene [2]; [7]): 19 and 25 and 27 and 22
# of PM resistant colonies (40,000 seeded cells) (unheaded second sub-column: mean) (DPH1 gene [2]): 23
integration efficacy in dependence on gRNA length (DPH1 gene [2]): Targeted integration clearly above background was observed
# of DT + PM resistant colonies (40,000 seeded cells) (DPH1 gene [3]): 10 and 12 and 7 and 11
# of DT + PM resistant colonies (40,000 seeded cells) (DPH1 gene [3]; [7]): 10 and 12 and 7 and 11
# of DT + PM resistant colonies (40,000 seeded cells) (unheaded second sub-column: mean) (DPH1 gene [3]): 10

16 mer SpCas9 Dph1 gRNA: Dph1 gRNA sequence variant GCGGCCGAGACGGCCC with SpCas9 (chemistry not given here)
# of DT resistant colonies (20,000 seeded cells) (DPH1 gene [1]): 275 and 298 and 292 and 271
# of DT resistant colonies (20,000 seeded cells) (DPH1 gene [1]; [8]): 275 and 298 and 292 and 271
# of DT resistant colonies (20,000 seeded cells) (unheaded second sub-column: mean) (DPH1 gene [1]): 284
# of PM resistant colonies (40,000 seeded cells) (DPH1 gene [2]): 21 and 26 (2×) and 25
# of PM resistant colonies (40,000 seeded cells) (DPH1 gene [2]; [8]): 21 and 26 (2×) and 25
# of PM resistant colonies (40,000 seeded cells) (unheaded second sub-column: mean) (DPH1 gene [2]): 25
integration efficacy in dependence on gRNA length (DPH1 gene [2]): Targeted integration clearly above background was observed
# of DT + PM resistant colonies (40,000 seeded cells) (DPH1 gene [3]): 7 and 9 (2×) and 10
# of DT + PM resistant colonies (40,000 seeded cells) (DPH1 gene [3]; [8]): 7 and 9 (2×) and 10
# of DT + PM resistant colonies (40,000 seeded cells) (unheaded second sub-column: mean) (DPH1 gene [3]): 8

22 mer SpCas9 Dph1 gRNA: Dph1 gRNA sequence variant AGCAGGGCGGCCGAGACGGCCC with SpCas9 (chemistry not given here)
# of DT resistant colonies (20,000 seeded cells) (DPH1 gene [1]): 278 and 292 and 297 and 267
# of DT resistant colonies (20,000 seeded cells) (DPH1 gene [1]; [9]): 278 and 292 and 297 and 267
# of DT resistant colonies (20,000 seeded cells) (unheaded second sub-column: mean) (DPH1 gene [1]): 284
# of PM resistant colonies (40,000 seeded cells) (DPH1 gene [2]): 14 and 12 and 11 and 15
# of PM resistant colonies (40,000 seeded cells) (DPH1 gene [2]; [9]): 14 and 12 and 11 and 15
# of PM resistant colonies (40,000 seeded cells) (unheaded second sub-column: mean) (DPH1 gene [2]): 13
integration efficacy in dependence on gRNA length (DPH1 gene [2]): Targeted integration clearly above background was observed
# of DT + PM resistant colonies (40,000 seeded cells) (DPH1 gene [3]): 6 and 5 (2×) and 4
# of DT + PM resistant colonies (40,000 seeded cells) (DPH1 gene [3]; [9]): 6 and 5 (2×) and 4
# of DT + PM resistant colonies (40,000 seeded cells) (unheaded second sub-column: mean) (DPH1 gene [3]): 5
